Measured values from patent publication US12679878B2, “CRF2 receptor agonists and their use in therapy” (SANOFI, priority 2020, dated 2026).
Read-outs that look alike come from different tables or passages of the source. Starred links: 1 amine or outer side, 2 acyl side, 3 side chain; linkers in the order of their positions; H or OH if unused. Non-standard residues stand in square brackets, D forms with d. Residues, ends and D or L forms follow the SMILES beside them. Groups on a side chain read outwards from the residue. *: point of attachment. C18 diacid = O=C(O)CCCCCCCCCCCCCCCCC(=O)*; γGlu = O=C(O)[C@H](CCC(=O)[*:2])N[*:1]; AEEA = NCCOCCOCC(=O)O; Aib = CC(C)(N)C(=O)O

How the values were obtained:
human CRF2α receptor = target: T1, human CRF2α receptor (Homo sapiens, UniProt Q13324); experiment: cAMP agonism at human CRF2 α receptor in TeloHEAC cells (Example 7); format: cell-based; conditions: cAMP HTRF, TeloHEAC cells stably expressing human CRF2 α
T1 construct: expressed in transfected cells; host or cells: TeloHEAC
T1 sequence (Q13324 1-411): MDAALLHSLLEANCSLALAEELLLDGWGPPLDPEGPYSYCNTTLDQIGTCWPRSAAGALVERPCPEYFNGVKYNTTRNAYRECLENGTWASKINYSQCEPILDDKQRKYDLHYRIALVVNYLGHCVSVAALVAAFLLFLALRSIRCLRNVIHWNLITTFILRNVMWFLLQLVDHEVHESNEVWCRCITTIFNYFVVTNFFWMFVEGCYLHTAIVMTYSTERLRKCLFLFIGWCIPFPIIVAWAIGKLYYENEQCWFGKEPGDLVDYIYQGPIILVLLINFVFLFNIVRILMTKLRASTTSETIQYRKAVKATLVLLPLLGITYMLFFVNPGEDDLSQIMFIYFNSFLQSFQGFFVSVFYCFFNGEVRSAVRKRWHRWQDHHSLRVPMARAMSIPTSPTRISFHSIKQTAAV
Procedure, shortened: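 Steps: thaw and wash cells; suspend in 1×HBSS, 20 mM HEPES, 0 or 0.1% HSA, 2 mM IBMX; add compound, 30 min RT; lyse with HTRF reagents, 1 h; read 665/620 nm. EC50 calculated, E% versus 1000 nM UCN2.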

CRF1R receptor = target: T2, CRF1R receptor (Homo sapiens, UniProt P34998); experiment: cAMP activity at anti-target CRF1R, CHO-K1 cell line clone 2 (Example 19.10); format: cell-based; conditions: CRF1R CHO-K1 clone 2; for EC50: 0% HSA, read-out: EC50 [nM] 0% HSA; for Emax: 100% = Sauvagine at 100 nM
T2 construct: host or cells: CHO-K1 clone 2
T2 sequence (P34998 24-415): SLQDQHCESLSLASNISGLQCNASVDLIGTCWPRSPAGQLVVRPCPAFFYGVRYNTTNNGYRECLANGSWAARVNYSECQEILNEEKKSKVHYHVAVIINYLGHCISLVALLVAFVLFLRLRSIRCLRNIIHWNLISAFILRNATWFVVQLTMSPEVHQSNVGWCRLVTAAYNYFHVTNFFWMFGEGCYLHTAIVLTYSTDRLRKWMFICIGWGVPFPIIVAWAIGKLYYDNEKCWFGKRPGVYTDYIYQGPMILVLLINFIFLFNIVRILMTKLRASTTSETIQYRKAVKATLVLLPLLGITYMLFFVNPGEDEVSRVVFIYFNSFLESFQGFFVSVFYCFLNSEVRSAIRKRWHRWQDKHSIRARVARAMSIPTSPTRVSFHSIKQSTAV
Procedure, shortened: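 The cAMP read-out used the same protocol as the previous assay, except that Sauvagine at 100 nM set the 100% activation control. Cells were CHO-K1 clone 2 overexpressing CRF1R, cultured in F12 medium with 10% FBS and G418 and stored frozen until use.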

[1] = 0% HSA, read-out: EC50 [nM], 0% HSA
[2] = 0.1% HSA, read-out: EC50 [nM], 0.1% HSA

Row | Structure (SMILES) | EC50 (human CRF2α receptor; [1]) [nM] | EC50 (CRF1R receptor) [nM] | Emax (CRF1R receptor) [%] | EC50 (human CRF2α receptor; [2]) [nM]
1 | CC[C@H](C)[C@H](N)C(=O)N[C@H](C(=O)N[C@@H](CC(C)C)C(=O)N[C@@H](CO)C(=O)N[C@@H](CC(C)C)C(=O)N[C@@H](CC(=O)O)C(=O)N[C@H](C(=O)N1CCC[C@H]1C(=O)N[C@H](C(=O)N[C@@H](CCCCN)C(=O)N[C@@H](CC(C)C)C(=O)N[C@@H](CCCCNC(=O)COCCOCCNC(=O)COCCOCCNC(=O)CC[C@H](NC(=O)CCCCCCCCCCCCCCCCC(=O)O)C(=O)O)C(=O)N[C@@H](CCC(N)=O)C(=O)N[C@H](C(=O)N[C@@H](CC(C)C)C(=O)N[C@@H](CC(C)C)C(=O)N[C@@H](CCCCN)C(=O)N[C@@H](CCC(N)=O)C(=O)N[C@@H](CCC(=O)O)C(=O)N[C@@H](CCCNC(=N)N)C(=O)N[C@@H](CCC(N)=O)C(=O)N[C@@H](CCCCN)C(=O)NC(C)(C)C(=O)N[C@@H](CCC(N)=O)C(=O)N[C@@H](CCCNC(=N)N)C(=O)N[C@@H](CCC(=O)O)C(=O)N[C@@H](CCCCN)C(=O)N[C@@H](C)C(=O)N[C@@H](CCC(=O)O)C(=O)N[C@@H](CCCCN)C(=O)N[C@@H](CC(N)=O)C(=O)N[C@@H](CCCCN)C(=O)N[C@@H](CCC(N)=O)C(=O)N[C@H](C(=O)N[C@@H](CC(C)C)C(=O)N[C@@H](C)C(=O)N[C@@H](CCC(N)=O)C(=O)N[C@H](C(N)=O)C(C)C)[C@@H](C)CC)[C@@H](C)CC)[C@@H](C)CC)C(C)C)C(C)C [compound 116] (H-IVLSLDVPIKLK([AEEA-AEEA-γGlu-C18 diacid])QILLKQERQK[Aib]QREKAEKNKQILAQV-NH2; N-terminus assumed) | 0.7 | > 100 | 0.8 | –
2 | CC[C@H](C)[C@H](N)C(=O)N[C@H](C(=O)N[C@@H](CC(C)C)C(=O)N[C@@H](CO)C(=O)N[C@@H](CC(C)C)C(=O)N[C@@H](CC(=O)O)C(=O)N[C@H](C(=O)N1CCC[C@H]1C(=O)N[C@H](C(=O)N[C@@H](CCCCN)C(=O)N[C@@H](CC(C)C)C(=O)N[C@@H](CCCCNC(=O)COCCOCCNC(=O)COCCOCCNC(=O)CC[C@H](NC(=O)CCCCCCCCCCCCCCCCC(=O)O)C(=O)O)C(=O)N[C@@H](CCC(N)=O)C(=O)N[C@H](C(=O)N[C@@H](CC(C)C)C(=O)N[C@@H](CC(C)C)C(=O)N[C@@H](CCCCN)C(=O)N[C@@H](CCC(N)=O)C(=O)N[C@@H](CCC(=O)O)C(=O)N[C@@H](CCCNC(=N)N)C(=O)N[C@@H](CCC(N)=O)C(=O)N[C@@H](CCCCN)C(=O)NC(C)(C)C(=O)N[C@@H](CCC(N)=O)C(=O)N[C@@H](CCCNC(=N)N)C(=O)N[C@@H](CCC(N)=O)C(=O)N[C@@H](CCC(N)=O)C(=O)N[C@@H](C)C(=O)N[C@@H](CCC(=O)O)C(=O)N[C@@H](CCCCN)C(=O)N[C@@H](CC(N)=O)C(=O)N[C@@H](CCCCN)C(=O)N[C@@H](CCC(N)=O)C(=O)N[C@H](C(=O)N[C@@H](CC(C)C)C(=O)N[C@@H](C)C(=O)N[C@@H](CCC(N)=O)C(=O)N[C@H](C(N)=O)C(C)C)[C@@H](C)CC)[C@@H](C)CC)[C@@H](C)CC)C(C)C)C(C)C [compound 117] (H-IVLSLDVPIKLK([AEEA-AEEA-γGlu-C18 diacid])QILLKQERQK[Aib]QRQQAEKNKQILAQV-NH2) | 0.11 | > 100 | -6 | –
3 | CC[C@H](C)[C@H](N)C(=O)N[C@H](C(=O)N[C@@H](CC(C)C)C(=O)N[C@@H](CO)C(=O)N[C@@H](CC(C)C)C(=O)N[C@@H](CC(=O)O)C(=O)N[C@@H](C(=O)N1CCC[C@H]1C(=O)N[C@H](C(=O)N[C@@H](CCCCN)C(=O)N[C@@H](CC(C)C)C(=O)N[C@@H](CCCCNC(=O)COCCOCCNC(=O)COCCOCCNC(=O)CC[C@H](NC(=O)CCCCCCCCCCCCCCCCC(=O)O)C(=O)O)C(=O)N[C@@H](CCC(N)=O)C(=O)N[C@H](C(=O)N[C@@H](CC(C)C)C(=O)N[C@@H](CC(C)C)C(=O)N[C@@H](CCCCN)C(=O)N[C@@H](CCC(N)=O)C(=O)N[C@@H](CCC(=O)O)C(=O)N[C@@H](CCCNC(=N)N)C(=O)N[C@@H](CCC(N)=O)C(=O)N[C@@H](CCCCN)C(=O)NC(C)(C)C(=O)N[C@@H](CCC(N)=O)C(=O)N[C@@H](CCCNC(=N)N)C(=O)N[C@@H](CCC(N)=O)C(=O)N[C@@H](CCCCN)C(=O)N[C@@H](C)C(=O)N[C@@H](CCC(=O)O)C(=O)N[C@@H](CCCCN)C(=O)N[C@@H](CC(N)=O)C(=O)N[C@@H](CCCCN)C(=O)N[C@@H](CCC(N)=O)C(=O)N[C@H](C(=O)N[C@@H](CC(C)C)C(=O)N[C@@H](C)C(=O)N[C@@H](CCC(N)=O)C(=O)N[C@H](C(N)=O)C(C)C)[C@@H](C)CC)[C@@H](C)CC)[C@@H](C)CC)C(C)C)C(C)C [compound 118] (H-IVLSLD[dV]PIKLK([AEEA-AEEA-γGlu-C18 diacid])QILLKQERQK[Aib]QRQKAEKNKQILAQV-NH2; N-terminus assumed) | 0.04 | > 100 | 1.5 | 2.13
4 | CC[C@H](C)[C@H](N)C(=O)N[C@H](C(=O)N[C@@H](CC(C)C)C(=O)N[C@@H](CO)C(=O)N[C@@H](CC(C)C)C(=O)N[C@@H](CC(=O)O)C(=O)N[C@H](C(=O)N1CCC[C@H]1C(=O)N[C@H](C(=O)N[C@@H](CCCCN)C(=O)N[C@@H](CC(C)C)C(=O)N[C@@H](CCCCNC(=O)COCCOCCNC(=O)COCCOCCNC(=O)CC[C@H](NC(=O)CCCCCCCCCCCCCCCCC(=O)O)C(=O)O)C(=O)N[C@@H](CCC(N)=O)C(=O)N[C@H](C(=O)N[C@@H](CC(C)C)C(=O)N[C@@H](CC(C)C)C(=O)N[C@@H](CCCCN)C(=O)N[C@@H](CCC(N)=O)C(=O)N[C@@H](CCC(=O)O)C(=O)N[C@@H](CCCNC(=N)N)C(=O)N[C@@H](CCC(N)=O)C(=O)N[C@@H](CCCCN)C(=O)N[C@@H](CCCCN)C(=O)NC(C)(C)C(=O)N[C@@H](CCCNC(=N)N)C(=O)N[C@@H](CCC(N)=O)C(=O)N[C@@H](CCCCN)C(=O)N[C@@H](C)C(=O)N[C@@H](CCC(=O)O)C(=O)N[C@@H](CCCCN)C(=O)N[C@@H](CC(N)=O)C(=O)N[C@@H](CCCCN)C(=O)N[C@@H](CCC(N)=O)C(=O)N[C@H](C(=O)N[C@@H](CC(C)C)C(=O)N[C@@H](C)C(=O)N[C@@H](CCC(N)=O)C(=O)N[C@H](C(N)=O)C(C)C)[C@@H](C)CC)[C@@H](C)CC)[C@@H](C)CC)C(C)C)C(C)C [compound 119] (H-IVLSLDVPIKLK([AEEA-AEEA-γGlu-C18 diacid])QILLKQERQKK[Aib]RQKAEKNKQILAQV-NH2) | 0.13 | > 100 | 0.4 | 4.97
5 | CC[C@H](C)[C@H](N)C(=O)N[C@H](C(=O)N[C@@H](CC(C)C)C(=O)N[C@@H](CO)C(=O)N[C@@H](CC(C)C)C(=O)N[C@@H](CC(=O)O)C(=O)N[C@H](C(=O)N1CCC[C@H]1C(=O)N[C@H](C(=O)N[C@@H](CCCCN)C(=O)N[C@@H](CC(C)C)C(=O)N[C@@H](CCCCNC(=O)COCCOCCNC(=O)COCCOCCNC(=O)CC[C@H](NC(=O)CCCCCCCCCCCCCCCCC(=O)O)C(=O)O)C(=O)N[C@@H](CCC(N)=O)C(=O)N[C@H](C(=O)N[C@@H](CC(C)C)C(=O)N[C@@H](CC(C)C)C(=O)N[C@@H](CCCCN)C(=O)N[C@@H](CCC(N)=O)C(=O)N[C@@H](CCC(=O)O)C(=O)N[C@@H](CCCNC(=N)N)C(=O)N[C@@H](CCC(N)=O)C(=O)N[C@@H](CCCCN)C(=O)N[C@@H](CCCCN)C(=O)N[C@@H](CCC(N)=O)C(=O)N[C@@H](CCCNC(=N)N)C(=O)N[C@@H](CCC(=O)O)C(=O)N[C@@H](CCCCN)C(=O)N[C@@H](C)C(=O)N[C@@H](CCC(=O)O)C(=O)N[C@@H](CCCCN)C(=O)N[C@@H](CC(N)=O)C(=O)N[C@@H](CCCCN)C(=O)N[C@@H](CCC(N)=O)C(=O)N[C@H](C(=O)N[C@@H](CC(C)C)C(=O)N[C@@H](C)C(=O)N[C@@H](CCC(N)=O)C(=O)N[C@H](C(N)=O)C(C)C)[C@@H](C)CC)[C@@H](C)CC)[C@@H](C)CC)C(C)C)C(C)C [compound 121] (H-IVLSLDVPIKLK([AEEA-AEEA-γGlu-C18 diacid])QILLKQERQKKQREKAEKNKQILAQV-NH2) | 0.73 | > 100 | -1.1 | 41.3
